Experimental data taken from patent publication EP0295827A2, “Use of 24,25-dihydroxy-cholecalciferol in mending bone fractures” (priority 1987, dated 1988).

Assay: Acute toxicity, single oral administration
Settings: mouse, in vivo, ICR male mice, read-out: LD₅₀ value
Protocol: 24,25-(OH)₂-D₃ in ethanol was dissolved in a triglyceride ester of a middle fatty acid so as to have an ethanol concentration of 2 %. The thus-prepared solution was orally administered to 10 ICR male mice (weight: 25 ± 3g). The dosage of 24,25-(OH)₂-D₃ was 100 mg/kg. […] When they were subjected to the biochemical blood test, anatomical examination and pathological histology after they were killed, there was no difference between the treated mice and a controlled group of mice to which only a triglyceride ester of a middle fatty acid containing 2% ethanol had been administered. Since the LD₅₀ value of the oral administration of 24,25-(OH)₂-D₃ was not less than 100 mg/kg, 24,25-(OH)₂-D₃ can be said to be very safe.

C=C1CCC(O)CC1=CC=C1CCCC2(C)C1CCC2C(C)CCC(O)C(C)(C)O (stereo not shown) [24,25-(OH)₂-D₃, 24,25-dihydroxycholecalciferol]
LD50 at 336 h: ≥ 100 mg/kg
